Assay results published in publication PMC5218480 (PLoS ONE, 2017).

Test system: MV-4-11 cells
Assay: Gene expression microarray analysis (Affymetrix PrimeView) and GSEA
Type: cell-based, human
Parameters: RFU PODN (11730768_x_at) / Fold change /veh PODN (11730768_x_at) / RFU LINC00158 (11744669_a_at) / Fold change /veh LINC00158 (11744669_a_at) / RFU DUSP10 (11751237_a_at) / Fold change /veh DUSP10 (11751237_a_at) / RFU ID3 (11757404_x_at) / Fold change /veh ID3 (11757404_x_at) / RFU PLEKHG5 (11737974_s_at) / Fold change /veh PLEKHG5 (11737974_s_at) / RFU LRRC4B (11730491_at) / Fold change /veh LRRC4B (11730491_at) / RFU GIMAP4 (11747438_a_at) / Fold change /veh GIMAP4 (11747438_a_at) / RFU KRT8 (11758183_x_at) / Fold change /veh KRT8 (11758183_x_at) / RFU CNN1 (11734310_a_at) / Fold change /veh CNN1 (11734310_a_at) / RFU VPS37D (11726825_at) / Fold change /veh VPS37D (11726825_at) / RFU C10orf10 (11716522_x_at) / Fold change /veh C10orf10 (11716522_x_at) / RFU KIR2DL2 /// KIR2DL4 /// KIR2DL5A /// KIR2DL5B /// KIR2DS1 /// KIR2DS2 /// KIR2DS3 /// KIR2DS4 /// KIR3DL3 /// KIR3DL3 /// KIR3DS1 (11738374_at) / Fold change /veh KIR2DL2 /// KIR2DL4 /// KIR2DL5A /// KIR2DL5B /// KIR2DS1 /// KIR2DS2 /// KIR2DS3 /// KIR2DS4 /// KIR3DL3 /// KIR3DL3 /// KIR3DS1 (11738374_at) / RFU C1QL1 (11718748_at) / Fold change /veh C1QL1 (11718748_at) / RFU TMPRSS4 (11747572_a_at) / Fold change /veh TMPRSS4 (11747572_a_at) / RFU HAMP (11756126_x_at) / Fold change /veh HAMP (11756126_x_at) / RFU RNFT2 (11725882_a_at) / Fold change /veh RNFT2 (11725882_a_at) / RFU NR4A2 (11747474_a_at) / Fold change /veh NR4A2 (11747474_a_at) / RFU ABCC12 (11746883_a_at) / Fold change /veh ABCC12 (11746883_a_at) / RFU TMEM136 (11760407_x_at) / Fold change /veh TMEM136 (11760407_x_at) / RFU CLDN22 /// WWC2 (11732394_at) / Fold change /veh CLDN22 /// WWC2 (11732394_at) / RFU HLA-DPB1 (11760878_x_at) / Fold change /veh HLA-DPB1 (11760878_x_at) / RFU SPINT1 (11716480_a_at) / Fold change /veh SPINT1 (11716480_a_at) / RFU GAP43 (11754022_s_at) / Fold change /veh GAP43 (11754022_s_at) / RFU A4GNT (11735810_at) / Fold change /veh A4GNT (11735810_at) / RFU PRB3 (11715151_x_at) / Fold change /veh PRB3 (11715151_x_at) / RFU TUBB4B (11761932_at) / Fold change /veh TUBB4B (11761932_at) / RFU CAPN14 (11732068_a_at) / Fold change /veh CAPN14 (11732068_a_at) / RFU TMCC2 (11721928_a_at) / Fold change /veh TMCC2 (11721928_a_at) / RFU IRGQ (11745062_a_at) / Fold change /veh IRGQ (11745062_a_at) / RFU FAM174B (11720279_a_at) / Fold change /veh FAM174B (11720279_a_at) / RFU TMPRSS4 (11748680_a_at) / Fold change /veh TMPRSS4 (11748680_a_at) / RFU FAM212B (11763350_a_at) / Fold change /veh FAM212B (11763350_a_at) / RFU PLEKHG5 (11743358_a_at) / Fold change /veh PLEKHG5 (11743358_a_at) / RFU ZSCAN30 (11745921_a_at) / Fold change /veh ZSCAN30 (11745921_a_at) / RFU CMKLR1 (11741424_a_at) / Fold change /veh CMKLR1 (11741424_a_at) / RFU LOC101060620 /// MAPK8IP1 (11723275_at) / Fold change /veh LOC101060620 /// MAPK8IP1 (11723275_at) / RFU SPTSSB (11747773_x_at) / Fold change /veh SPTSSB (11747773_x_at) / RFU PRSS12 (11739890_at) / Fold change /veh PRSS12 (11739890_at) / RFU BIN1 (11741810_x_at) / Fold change /veh BIN1 (11741810_x_at) / RFU WNT11 (11732464_a_at) / Fold change /veh WNT11 (11732464_a_at) / RFU C10orf10 (11716521_a_at) / Fold change /veh C10orf10 (11716521_a_at) / RFU C5orf56 (11738089_at) / Fold change /veh C5orf56 (11738089_at) / RFU CYB561 (11721691_x_at) / Fold change /veh CYB561 (11721691_x_at) / RFU ANKRD19P (11752326_a_at) / Fold change /veh ANKRD19P (11752326_a_at) / RFU OR2T12 /// OR2T33 /// OR2T8 (11738714_s_at) / Fold change /veh OR2T12 /// OR2T33 /// OR2T8 (11738714_s_at) / RFU VCAN (11748164_a_at) / Fold change /veh VCAN (11748164_a_at) / RFU JSRP1 (11732532_at) / Fold change /veh JSRP1 (11732532_at) / RFU KRTAP10-11 (11738290_x_at) / Fold change /veh KRTAP10-11 (11738290_x_at) / RFU MYO3A (11730013_a_at) / Fold change /veh MYO3A (11730013_a_at) / RFU EBF3 (11725865_a_at) / Fold change /veh EBF3 (11725865_a_at) / RFU CAMK2N1 (11719241_x_at) / Fold change /veh CAMK2N1 (11719241_x_at) / RFU C5orf56 (11738088_a_at) / Fold change /veh C5orf56 (11738088_a_at) / RFU OLFML3 (11715873_a_at) / Fold change /veh OLFML3 (11715873_a_at) / RFU LOC100653217 /// NTM (11731650_a_at) / Fold change /veh LOC100653217 /// NTM (11731650_a_at) / RFU MAPK11 (11762145_a_at) / Fold change /veh MAPK11 (11762145_a_at) / RFU FIZ1 (11724087_x_at) / Fold change /veh FIZ1 (11724087_x_at) / RFU OASL (11726364_x_at) / Fold change /veh OASL (11726364_x_at) / RFU SOX15 (11748057_x_at) / Fold change /veh SOX15 (11748057_x_at) / RFU CD79A (11719716_a_at) / Fold change /veh CD79A (11719716_a_at) / RFU HIST1H1D (11736915_at) / Fold change /veh HIST1H1D (11736915_at) / RFU CASKIN2 (11723855_a_at) / Fold change /veh CASKIN2 (11723855_a_at) / RFU LOC730098 (11760151_x_at) / Fold change /veh LOC730098 (11760151_x_at) / RFU OR4N2 (11742367_at) / Fold change /veh OR4N2 (11742367_at) / RFU PRRT2 (11749266_a_at) / Fold change /veh PRRT2 (11749266_a_at) / RFU SNX32 (11753110_a_at) / Fold change /veh SNX32 (11753110_a_at) / RFU CDHR5 (11726645_a_at) / Fold change /veh CDHR5 (11726645_a_at) / RFU RCAN1 (11760418_a_at) / Fold change /veh RCAN1 (11760418_a_at) / RFU FAM167A (11723789_a_at) / Fold change /veh FAM167A (11723789_a_at) / RFU FAM26E (11764081_at) / Fold change /veh FAM26E (11764081_at) / RFU ISYNA1 (11749810_s_at) / Fold change /veh ISYNA1 (11749810_s_at) / RFU ACY1 (11761880_at) / Fold change /veh ACY1 (11761880_at) / RFU 11764098_at / Fold change /veh 11764098_at / RFU SAMD14 (11745864_x_at) / Fold change /veh SAMD14 (11745864_x_at) / RFU NPB (11741838_a_at) / Fold change /veh NPB (11741838_a_at) / RFU TMPRSS6 (11731388_a_at) / Fold change /veh TMPRSS6 (11731388_a_at) / RFU KRTAP10-2 (11738614_at) / Fold change /veh KRTAP10-2 (11738614_at) / RFU ARHGAP8 /// PRR5-ARHGAP8 (11727945_x_at) / Fold change /veh ARHGAP8 /// PRR5-ARHGAP8 (11727945_x_at) / RFU KRTAP5-7 /// NADSYN1 (11734609_at) / Fold change /veh KRTAP5-7 /// NADSYN1 (11734609_at) / RFU RASL12 (11751679_a_at) / Fold change /veh RASL12 (11751679_a_at) / RFU CDKN2B (11736163_a_at) / Fold change /veh CDKN2B (11736163_a_at) / RFU PRF1 (11729649_at) / Fold change /veh PRF1 (11729649_at) / RFU, ZNF638 /// ZNF638-IT1 / Fold change vs veh, ZNF638 /// ZNF638-IT1 / RFU, PANK3 / Fold change vs veh, PANK3 / RFU, SH3YL1 / Fold change vs veh, SH3YL1 / RFU, ZEB2 / Fold change vs veh, ZEB2 / RFU, NRIP1 / Fold change vs veh, NRIP1 / RFU, PTTG1IP / Fold change vs veh, PTTG1IP / RFU, CAPN2 / Fold change vs veh, CAPN2 / RFU, MED14 / Fold change vs veh, MED14 / RFU, SNORA58 / Fold change vs veh, SNORA58 / RFU, C1orf63 / Fold change vs veh, C1orf63 / RFU, LRRFIP1 / Fold change vs veh, LRRFIP1 / RFU, NDUFAF7 / Fold change vs veh, NDUFAF7 / RFU, SLC12A2 / Fold change vs veh, SLC12A2 / RFU, IBTK / Fold change vs veh, IBTK / RFU, ESF1 / Fold change vs veh, ESF1 / Fold change vs veh, TMEM50B / RFU, TAOK1 / Fold change vs veh, TAOK1 / RFU, ACBD3 / Fold change vs veh, ACBD3 / RFU, TMA16 / Fold change vs veh, TMA16 / RFU, RWDD3 / Fold change vs veh, RWDD3 / RFU, BCAT1 / Fold change vs veh, BCAT1 / RFU, EDEM3 / Fold change vs veh, EDEM3 / RFU, TMEM33 / Fold change vs veh, TMEM33 / RFU, WDR75 / Fold change vs veh, WDR75 / RFU, AHCTF1 / Fold change vs veh, AHCTF1 / RFU, TFRC / Fold change vs veh, TFRC / RFU, ZDHHC17 / Fold change vs veh, ZDHHC17 / RFU, NOM1 / Fold change vs veh, NOM1 / RFU, ARL8B / Fold change vs veh, ARL8B / RFU, ZBTB11 / Fold change vs veh, ZBTB11 / RFU, TAMM41 / Fold change vs veh, TAMM41 / RFU, KIAA1704 /// LOC100996395 / Fold change vs veh, KIAA1704 /// LOC100996395 / RFU, ING1 / Fold change vs veh, ING1 / RFU, TRMT61B / Fold change vs veh, TRMT61B / RFU, FUBP3 / Fold change vs veh, FUBP3 / RFU, TP53 / Fold change vs veh, TP53 / RFU, TNKS2 / Fold change vs veh, TNKS2 / RFU, ZFP14 / Fold change vs veh, ZFP14 / RFU, ACTR2 / Fold change vs veh, ACTR2 / RFU, PPP3R1 / Fold change vs veh, PPP3R1 / RFU, PIK3R1 / Fold change vs veh, PIK3R1 / RFU, HNRNPA1 / Fold change vs veh, HNRNPA1 / RFU, RNF170 / Fold change vs veh, RNF170 / RFU, ZNF28 / Fold change vs veh, ZNF28 / RFU, RNGTT / Fold change vs veh, RNGTT / RFU, OGT / Fold change vs veh, OGT / RFU, BRD1 / Fold change vs veh, BRD1 / RFU, MARS / Fold change vs veh, MARS / RFU, ZNF655 / Fold change vs veh, ZNF655 / RFU, FAHD1 / Fold change vs veh, FAHD1 / RFU, BDP1 / Fold change vs veh, BDP1 / RFU, LRRCC1 / Fold change vs veh, LRRCC1 / RFU, ARID1A / Fold change vs veh, ARID1A / RFU, ZNF146 / Fold change vs veh, ZNF146 / RFU, ZNF330 / Fold change vs veh, ZNF330 / RFU, GPN3 / Fold change vs veh, GPN3 / RFU, C9orf123 / Fold change vs veh, C9orf123 / RFU, N4BP2L2 / Fold change vs veh, N4BP2L2 / RFU, ARFIP1 / Fold change vs veh, ARFIP1 / RFU, FAM179B / Fold change vs veh, FAM179B / RFU, BCL10 / Fold change vs veh, BCL10 / RFU, UHRF1BP1L / Fold change vs veh, UHRF1BP1L / RFU, BET1 / Fold change vs veh, BET1 / RFU, CNOT2 / Fold change vs veh, CNOT2 / RFU, ZNF268 / Fold change vs veh, ZNF268 / Fold change vs veh, ZNF507 / RFU, DGCR2 / Fold change vs veh, DGCR2 / RFU, WDSUB1 / Fold change vs veh, WDSUB1 / Fold change vs veh, HSP90B1 /// MIR3652 / RFU, ADSS / Fold change vs veh, ADSS / RFU, GK / Fold change vs veh, GK / RFU, ZNF148 / Fold change vs veh, ZNF148 / RFU, TAF9 / Fold change vs veh, TAF9 / RFU, SLC1A5 / Fold change vs veh, SLC1A5 / RFU, SLMO2 / Fold change vs veh, SLMO2 / RFU, ABCC4 / Fold change vs veh, ABCC4 / RFU, LOC101060439 /// RAP1B / Fold change vs veh, LOC101060439 /// RAP1B / RFU, RFX7 / Fold change vs veh, RFX7 / RFU, GTPBP10 / Fold change vs veh, GTPBP10 / RFU, CNEP1R1 / Fold change vs veh, CNEP1R1 / RFU, BIVM-ERCC5 /// ERCC5 / Fold change vs veh, BIVM-ERCC5 /// ERCC5 / RFU, ILF3 / Fold change vs veh, ILF3 / RFU 11762660_at / Fold change /veh 11762660_at / RFU VCAN (11757783_s_at) / Fold change /veh VCAN (11757783_s_at) / RFU DDX43 (11728927_at) / Fold change /veh DDX43 (11728927_at) / RFU KRT8 (11758188_x_at) / Fold change /veh KRT8 (11758188_x_at) / RFU NKD1 (11759106_at) / Fold change /veh NKD1 (11759106_at) / RFU SRD5A1 (11742802_a_at) / Fold change /veh SRD5A1 (11742802_a_at) / RFU TPSAB1 /// TPSB2 (11721975_s_at) / Fold change /veh TPSAB1 /// TPSB2 (11721975_s_at) / RFU GSTM3 (11746129_a_at) / Fold change /veh GSTM3 (11746129_a_at) / RFU IL23R (11737362_x_at) / Fold change /veh IL23R (11737362_x_at) / RFU TMEM51 (11727254_a_at) / Fold change /veh TMEM51 (11727254_a_at) / RFU PIWIL2 (11732686_x_at) / Fold change /veh PIWIL2 (11732686_x_at) / RFU ORM1 (11744905_x_at) / Fold change /veh ORM1 (11744905_x_at) / RFU CCDC152 (11743942_at) / Fold change /veh CCDC152 (11743942_at) / RFU ECM1 (11717891_a_at) / Fold change /veh ECM1 (11717891_a_at) / RFU IL23R (11748794_a_at) / Fold change /veh IL23R (11748794_a_at) / RFU TNFAIP8L3 (11732012_x_at) / Fold change /veh TNFAIP8L3 (11732012_x_at) / RFU MBOAT4 (11741988_at) / Fold change /veh MBOAT4 (11741988_at) / RFU 11764193_at / Fold change /veh 11764193_at / RFU TMEM53 (11763286_at) / Fold change /veh TMEM53 (11763286_at) / RFU MAGEB2 (11727129_at) / Fold change /veh MAGEB2 (11727129_at) / RFU TMEM200A (11744735_a_at) / Fold change /veh TMEM200A (11744735_a_at) / RFU CCDC152 (11751479_a_at) / Fold change /veh CCDC152 (11751479_a_at) / RFU FAM211A (11726209_a_at) / Fold change /veh FAM211A (11726209_a_at) / RFU RGS16 (11746705_a_at) / Fold change /veh RGS16 (11746705_a_at) / RFU VCAN (11755009_s_at) / Fold change /veh VCAN (11755009_s_at) / RFU RHOB (11743442_s_at) / Fold change /veh RHOB (11743442_s_at) / RFU RGS16 (11720943_a_at) / Fold change /veh RGS16 (11720943_a_at) / RFU RGS16 (11720944_at) / Fold change /veh RGS16 (11720944_at) / RFU, VPS4B / Fold change vs veh, VPS4B / RFU, CREB1 / Fold change vs veh, CREB1 / RFU, DNAJC13 / Fold change vs veh, DNAJC13 / RFU, GNAQ / Fold change vs veh, GNAQ / RFU, CDK5R1 / Fold change vs veh, CDK5R1 / RFU, ZRANB3 / Fold change vs veh, ZRANB3 / RFU, CUL4A / Fold change vs veh, CUL4A / RFU, CCNY / Fold change vs veh, CCNY / RFU, UFL1 / Fold change vs veh, UFL1 / RFU, COG3 / Fold change vs veh, COG3 / RFU, DIAPH2 / Fold change vs veh, DIAPH2 / RFU, SKA2 / Fold change vs veh, SKA2 / RFU, AFF3 / Fold change vs veh, AFF3 / RFU, LMF1 / Fold change vs veh, LMF1 / RFU, IPO11 / Fold change vs veh, IPO11 / RFU, DFFB / Fold change vs veh, DFFB / RFU, FOXP1 / Fold change vs veh, FOXP1 / RFU, CARD8 / Fold change vs veh, CARD8 / RFU, STRN3 / Fold change vs veh, STRN3 / RFU, ADK / Fold change vs veh, ADK / RFU, RASSF2 / Fold change vs veh, RASSF2 / RFU, WIPF1 / Fold change vs veh, WIPF1 / RFU, LARP1B / Fold change vs veh, LARP1B / RFU, RASA1 / Fold change vs veh, RASA1 / RFU, RB1 / Fold change vs veh, RB1 / RFU, PPFIA1 / Fold change vs veh, PPFIA1 / RFU, MAT2A / Fold change vs veh, MAT2A / RFU, CCT5 / Fold change vs veh, CCT5 / RFU, WDR92 / Fold change vs veh, WDR92 / RFU, CUX1 / Fold change vs veh, CUX1 / RFU, TTC7A / Fold change vs veh, TTC7A / RFU, TMEM135 / Fold change vs veh, TMEM135 / RFU, DEPTOR / Fold change vs veh, DEPTOR / RFU, CPM / Fold change vs veh, CPM / RFU, DNAJB6 / Fold change vs veh, DNAJB6 / RFU, CACNA2D3 / Fold change vs veh, CACNA2D3 / RFU, DTX4 / Fold change vs veh, DTX4 / RFU, TFCP2 / Fold change vs veh, TFCP2 / RFU, GMCL1 /// GMCL1P1 / Fold change vs veh, GMCL1 /// GMCL1P1 / RFU, AEBP2 / Fold change vs veh, AEBP2 / RFU, SNHG1 /// SNORD22 /// SNORD25 /// SNORD26 /// SNORD27 /// SNORD28 /// SNORD29 /// SNORD31 / Fold change vs veh, SNHG1 /// SNORD22 /// SNORD25 /// SNORD26 /// SNORD27 /// SNORD28 /// SNORD29 /// SNORD31 / Fold change (Aza/veh), C12orf56 (ProbeSet 11735607_a_at) / Fold change (ACY-1035/veh), C12orf56 (ProbeSet 11735607_a_at) / Fold change (Aza/veh), FGFR1OP (ProbeSet 11751329_s_at) / Fold change (ACY-1035/veh), FGFR1OP (ProbeSet 11751329_s_at) / Fold change (Aza/veh), VPS36 (ProbeSet 11739960_a_at) / Fold change (ACY-1035/veh), VPS36 (ProbeSet 11739960_a_at) / RFU SYPL1 (11715823_x_at) / Fold change /veh SYPL1 (11715823_x_at) / RFU IGFBP7 (11715501_s_at) / Fold change /veh IGFBP7 (11715501_s_at) / RFU REEP3 (11722064_at) / Fold change /veh REEP3 (11722064_at) / RFU IGLL1 (11728026_x_at) / Fold change /veh IGLL1 (11728026_x_at): dose or concentration left out as unconfirmed
Conditions: ProbeSet 11726703_a_at; LIST B

SMILES: Nc1ccc(-c2cccs2)cc1NC(=O)c1ccc2c(c1)cc(C1CC1)n2CCN1CCOCC1 [ACY-1035]
- RFU, BCL10: 67.93 RFU
